Measurements as given in patent US20220251096A1, “7,8-DIHYDRO-4H-PYRAZOLO[4,3-c]AZEPINE-6-ONE COMPOUNDS” (Eli Lilly and Company, priority 2019, published 2022).

Key:
[1] = tested on: 22Rv1 prostate cancer cells; experiment: Cell proliferation assay in 22Rv1; type: cell-based; conditions: Homo sapiens, 22Rv1, 168 h, 22Rv1, 7 days; for inhibition at 0.37 µM: single agent at 370 nM
Experimental: The purpose of the following cell proliferation assay is to detect whether the compound of Example 2 and combinations thereof have an effect on cell proliferation.
22Rv1 (purchased from ATCC CRL-2505) cells are seeded at a density of 1,000 cells per well in RMPI 10% FBS (20 μL volume) into a clear bottom 384-well cell culture plate. The plate is incubated at 37° C. and 5% CO2. The cells are dosed the following day with the compound of Example 2 and the compound of Example 2 in combination with the known anti-cancer therapeutics found in the table below. An Echo 555 acoustic dispenser is used to prepare serial dilutions (1:3) of the compound of Example 2, and combinations thereof, in concentrations ranging from 60 μM to 0.003 μM. The cells are then dosed by addition of 5 μL from the serial dilution plate to the cell plate, producing a final DMSO concentration of 0.2% with a final concentration dose ranging from 20 μM to 0.001 μM for the compound of Example 2 and combinations thereof.
Media containing 0.2% DMSO is used for the maximum point and 2 μM staurosporine in the growth media containing 0.2% DMSO is used for the minimum point. After dosing with the compound of Example 2 and combinations thereof, the cell plates are incubated at 37° C. and 5% CO2. Seven days after test compound addition, plates are removed from the incubator and cold EtOH (96%, 65 μL) is added to each well. After 30 minutes, the media is removed and RNase (20 μL, 50 μg/mL) (Sigma) and a 1:1000 propidium iodide dilution in PBS are added to each well. The plates are sealed and incubated for 1 hour at room temperature and preserved from light. Plates are then scanned with ACUMEN EXPLORER™ [Laser-scanning fluorescence microplate cytometer manufactured by TTP LABTECH LTD]. The number of 22Rv1 cells is evaluated through an estimated number of cells, calculated through the area parameter (ratio of total area of the total cells population), a designated range of peak intensity of FL-3 (PI), and the mean area of the single cell population defined by perimeter. Data is then processed through an NGR screening tool. Data is analyzed using a 4-parameter nonlinear logistic equation (four-parameter logistic concentration-response curve): Y=bot+[(top−bot)/1+(x/IC50)slope] where Y=% inhibition, X=concentration yielding y % inhibition, “bot”=minimum value of y attained by curve, “top”=maximum value of y attained by curve, and “slope”=steepness of curve at IC50. % Inh=[(median Max−x/median Max−median Min)]·100.

MDA-MIB-453 = experiment: Cell growth inhibition assay, MDA-MIB-453; type: cell-based; conditions: 168 h; MDA-MIB-453, 7 days
Experimental: (§1) Tumor cell lines are plated onto 96-well, black wall poly-D-lysine plates (Corning #354640), and incubated at 37° C., 5% CO2 for 18-24 hours. Compound was added at 1:3 dilutions in DMSO and cells were incubated at 37° C., 5% CO2 for 7 days. For adherent cell lines, cells were fixed and stained with propidium iodide and scanned on Acumen (channel 3 setting). For suspension cell lines, cell growth was monitored using Cell Titer-Glo reagent.

SW780 = experiment: Cell growth inhibition assay, SW780; type: cell-based; conditions: Homo sapiens, 168 h; SW780, 7 days
Experimental: as §1

BRD4 (BD2) = molecular target: T1, BRD4 (BD2) (Homo sapiens, UniProt O60885); experiment: BromoKdELECT platform assay, BRD4 (BD2); type: binding; conditions: 11 points dose-response, mean from a duplicate experiment
T1 construct: BRD4 (Bromodomain 1 (BD1) and Bromodomain 2 (BD2)); purchased DiscoverX (BromoKdELECT service)
From the text: (§2) The purpose of this assay is to evaluate the in vitro target engagement and selectivity (https://www.discoverx.com/services/drug-discovery-development-services/epigenetic-profiling/bromoscan-epigenetic-profiling/bromokdelect). Assay measurement is based on the amount of bromodomain captured in test and control samples by using quantitative PCR technology that detects the DNA label associated to bromodomain. Compounds that bind the bromodomain active site prevents its binding to the immobilized ligand and will reduce the amount of bromodomain captured on the solid support. […] Thus, compound activity is monitored by measuring the amount of bromodomain captured in test versus control samples by using qPCR. Binding affinity for test compound-bromodomain interactions are calculated by measuring the amount of bromodomain captured on the solid support as a function of the test compound concentration.
(§3) Binding affinity (Kd) of the compounds of Examples 1 and 2 towards CREBBP, EP300 and BRD4 (Bromodomain 1 (BD1) and Bromodomain 2 (BD2)) are determined in an 11 points dose-response study (See Table 5). Data is represented as a mean from a duplicate experiment.

CREBBP [2] = molecular target: T2, CREBBP (Homo sapiens, UniProt Q92793); experiment: BromoKdELECT platform assay, CREBBP; type: binding; parameters: purchased DiscoverX (BromoKdELECT service); conditions: 11 points dose-response, mean from a duplicate experiment
From the text: as §2, §3

BRD4 (BD1) = molecular target: T3, BRD4 (BD1) (Homo sapiens, UniProt O60885); experiment: BromoKdELECT platform assay, BRD4 (BD1); type: binding; conditions: 11 points dose-response, mean from a duplicate experiment
T3 construct: BRD4 (Bromodomain 1 (BD1) and Bromodomain 2 (BD2)); purchased DiscoverX (BromoKdELECT service)
From the text: as §2, §3

EP300 [3] = molecular target: T4, EP300 (Homo sapiens, UniProt Q09472); experiment: NanoBRET assay, EP300 bromodomain; type: cell-based; parameters: NanoLuc-EP300-BD (Promega, 0.0002 μg); host or cells: HEK293; conditions: NanoBRET in HEK293 cells, read after 4 hours incubation; mean ± Standard Deviation
T4 sequence (Q09472 1049-1156 limits assumed): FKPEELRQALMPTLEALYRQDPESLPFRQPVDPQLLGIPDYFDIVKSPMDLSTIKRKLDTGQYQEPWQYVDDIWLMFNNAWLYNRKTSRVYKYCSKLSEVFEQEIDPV
Experimental: (§4) HEK293 cells are seeded at 10×10^6 cells/16 mL in DMEM+10% FBS in a T-75 flask and left to attach for 4-6 hours. Transfection reagents are diluted in Opti-MEM media (no phenol red, no FBS) and 8% Fugene HD containing expression plasmids at a final concentration of the following: 1: Histone H3.3 HaloTag DNA (Promega, 0.02 μg)+NanoLuc-CREBBP-BD (Promega, 0.0002 μg); 2: Histone H3.3 HaloTag DNA (Promega, 0.02 μg)+NanoLuc-EP300-BD (Promega, 0.0002 μg); 3: Histone H4 HaloTag DNA (0.02 μg)+NanLuc-BRD4 Full Length (Promega, 0.0002 μg). The DNA/Fugene mixtures are left at RT for 10 minutes. Transfection mix (800 μL) is added per flask and immediately swirled to cover the cells. The plates are returned to the incubator for overnight transfection. The next day, HaloTag NanoBRET 618 ligand (20 μL/vial of 0.1 mM) is thawed at RT. […]
(§5) Compound is serially diluted and added to 96-well plates (2 10 mM, 3-fold dilutions, 100% DMSO). […] CREBBP/EP300 plates are read after 4 hours incubation and the BRD4 plates are read after overnight incubation. To develop plates for reading, allow all reagents to reach RT before use. […] The plate is shaken for 1 minute to mix and within 10 minutes, read on Envision plate reader with the following settings: Mirror: Luminescence; Emission filter: E600LP; 2nd emission filter: D460/50; Measurement height (mm): 6.5; Measurement time (s): 0.2 second.

hBRD4 = molecular target: T5, hBRD4 (Homo sapiens, UniProt O60885); experiment: NanoBRET assay, BRD4 full length; type: cell-based; conditions: NanoBRET in HEK293 cells, read after overnight incubation; mean ± Standard Deviation
T5 construct: NanLuc-BRD4 Full Length (Promega, 0.0002 μg); host or cells: HEK293
Experimental: as §4, §5

NCI-H1048 = experiment: Cell growth inhibition assay, NCI-H1048; type: cell-based; conditions: Homo sapiens, 168 h; NCI-H1048, 7 days
Experimental: as §1

EOL-1 = experiment: Cell growth inhibition assay, EOL-1; type: cell-based; conditions: Homo sapiens, EOL1, 168 h; EOL-1, 7 days
Experimental: as §1

EP300 [4] = molecular target: T4, EP300; experiment: BromoKdELECT platform assay, EP300; type: binding; parameters: purchased DiscoverX (BromoKdELECT service); conditions: 11 points dose-response, mean from a duplicate experiment
From the text: as §2, §3

NCI-H211 = experiment: Cell growth inhibition assay, NCI-H211; type: cell-based; conditions: Homo sapiens, 168 h; NCI-H211, 7 days
Experimental: as §1

BRD4 (BD1, BD2) = molecular target: T6, BRD4 (BD1, BD2) (Homo sapiens, UniProt O60885); experiment: BromoKdELECT platform assay, BRD4 (BD1, BD2); type: binding; conditions: 11 points dose-response, mean from a duplicate experiment
T6 construct: BRD4 (Bromodomain 1 (BD1) and Bromodomain 2 (BD2)); purchased DiscoverX (BromoKdELECT service)
From the text: as §2, §3

CREBBP [5] = molecular target: T2, CREBBP; experiment: NanoBRET assay, CREBBP bromodomain; type: cell-based; parameters: NanoLuc-CREBBP-BD (Promega, 0.0002 μg); host or cells: HEK293; conditions: NanoBRET in HEK293 cells, read after 4 hours incubation; mean ± Standard Deviation
Experimental: as §4, §5

KG-1a = experiment: Cell growth inhibition assay, KG-1a; type: cell-based; conditions: Homo sapiens, 168 h, 7 days
Experimental: as §1

T2 sequence (Q92793 1085-1192 limits assumed): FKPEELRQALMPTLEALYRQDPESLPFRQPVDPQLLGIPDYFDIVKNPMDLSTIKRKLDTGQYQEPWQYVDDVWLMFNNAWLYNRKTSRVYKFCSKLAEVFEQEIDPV

Compound `CCN1CCN(Cc2ccc(Nc3ncc(F)c(-c4cc(F)c5nc(C)n(C(C)C)c5c4)n3)nc2)CC1` [Abemaciclib, abemaciclib, reference compound] has an inhibition at 0.012 µM ([1]; single agent at 12 nM) of 34.3% and an inhibition at 0.037 µM ([1]; single agent at 37 nM) of 62.4%.
For `CC(O)c1cc(C(=O)N[C@@H](C)Cn2ccc(-c3ccc(C#N)c(Cl)c3)n2)[nH]n1` (stereo partly shown) [Darolutamide, darolutamide, reference compound], the inhibition at 0.74 µM ([1]; single agent at 740 nM) was 6.69% and the inhibition at 2.2 µM ([1]; single agent at 2.2 μM) was 6.18%.
Compound `CNC(=O)c1ccc(-c2cc3cccc(-c4nn(C)c5c4CN(C)C(=O)CC5)c3cn2)cn1` [Example 1, 5-[8-(1,5-Dimethyl-6-oxo-7,8-dihydro-4H-pyrazolo[4,3-c]azepin-3-yl)-3-isoquinolyl]-N-methyl-pyridine-2-carboxamide] has an IC50 (MDA-MIB-453) of 28 nM, an IC50 (SW780) of 1 nM and a Kd (BRD4 (BD2)) of 6700 nM. The Kd (CREBBP [2]) was 1.1 nM, the Kd (BRD4 (BD1)) was 2000 nM and the IC50 (EP300 [3]) was 15.1 ± 2.75 nM. It also gave an IC50 (hBRD4) of 5570 ± 4100 nM, an IC50 (NCI-H1048) of 10 nM and an IC50 (EOL-1) of 0.8 nM. It also gave a Kd (EP300 [4]) of 0.16 nM, an IC50 (NCI-H211) of 36 nM and a Kd (BRD4 (BD1, BD2)) of 4400 nM. For the same compound, the IC50 (CREBBP [5]) was 16 ± 6.64 nM and the IC50 (KG-1a) was 37 nM.
In the case of `CNC(=O)c1ccc(N2C(=S)N(c3ccc(C#N)c(C(F)(F)F)c3)C(=O)C2(C)C)cc1F` [Enzalutamide, enzalutamide, reference compound], the inhibition at 0.37 µM [1] is reported as -0.12% and the inhibition at 3.3 µM ([1]; single agent at 3.3 μM) is reported as 0.41%.
With `Cc1nc(NC(=O)N2CCC[C@H]2C(N)=O)sc1-c1ccnc(C(C)(C)C(F)(F)F)c1` [Alpelisib, alpelisib, reference compound] the inhibition at 0.12 µM ([1]; single agent at 120 nM) was 33.1% and the inhibition at 0.37 µM [1] was 45.3%.
